Residues, ends and D or L forms follow the SMILES beside them.

The record followed here is publication PMC6627698, “Redesigning Arenicin-1, an Antimicrobial Peptide from the Marine Polychaeta Arenicola marina, by Strand Rearrangement or Branching, Substitution of Specific Residues, and Backbone Linearization or Cyclization” (Marine Drugs, 2019).

Test [1] deals with set of Gram-negative and Gram-positive bacteria, including drug-resistant clinical isolates. The format is cell-based. The settings on record: 12 strains; median MICs used; MIC > 16 µM taken as 32 µM. On the procedure: To obtain a global assessment of the effect on antimicrobial activity, the geometric mean of the MIC (G-MIC) was calculated, and from this, the overall improvement or impoverishment with respect to arenicin-1. In general, inverting the symmetry or decreasing the charge had detrimental effects.
The overall activity against a set of tested bacterial strains was determined by way of the commonly used geometric mean of measured MIC values. […] At the same time, the geometric mean can still discriminate antimicrobial agents showing minor variations in activity; in other words, it has a better “resolution” than the median MIC (MIC50). Some mathematical basics for choosing the geometric mean for antimicrobial activity comparison are further discussed in the Supplementary Chapter S3.

For another test, the system named is E. coli M15. The format is cell-based, Escherichia coli. The conditions noted are these: M15, 18 h. The source says:
(§1) E. coli ML35p, Listeria monocytogenes EGD, methicillin-resistant Staphylococcus aureus (MRSA) ATCC 33591 were kindly provided by Prof. Robert Lehrer (University of California, Los Angeles, CA, USA); E. coli ATCC 25922, E. coli M15, Pseudomonas aeruginosa ATCC 27853, S. aureus ATCC 25923 were provided by Dr. Elena Ermolenko (Institute of Experimental Medicine, St-Petersburg, Russia); drug-resistant clinical isolates were provided by Prof. Gennadiy Afinogenov (Saint Petersburg State University, Russia); S. aureus 710A has been described previously. The following clinical isolates of bacteria were used: P.s aeruginosa resistant to aztreonam, ceftazidime, cefotaxime (obtained from the urine of a patient with cystitis), Acinetobacter baumannii resistant to meropenem (from an infected wound); Staphylococcus intermedius (from an infected wound caused by a dog bite) resistant to ciprofloxacin, cefuroxime, clindamycin, erythromycin, rifampin, gentamicin, benzylpenicillin, oxacillin.
(§2) This assay was applied to determine the MIC, according to the guidelines of the Clinical and Laboratory Standards Institute, using Mueller Hinton (MH) Broth. We prepared 2x stocks of peptides and serially diluted them in sterile PBS instead of Mueller Hinton Broth, so that the treatment of the bacteria with the peptides was carried out in a medium containing 50% of MH and 50% of PBS, as described. The overnight cultures of each strain were transferred to fresh MH media and further incubated to obtain a mid-logarithmic-growth-phase culture of bacteria. The absorbance of each bacterial suspension was measured at 620 nm, and bacteria were then diluted to approximately 2 × 10^5 CFU/mL. Then, 50 µL of the suspensions were mixed with 50 µL of the peptide dilutions in the wells of a microtiter plate (pre-treated for 1 h at 37 °C with 0.2% bovine serum albumin (BSA) in water, sterilized by filtration, to diminish the non-specific binding of the peptides to the plastic surfaces).

The next test concerns E. coli ATCC 25922. In kind it is cell-based, Escherichia coli. The conditions noted are these: ATCC 25922, 18 h.
Excerpt: as §1, §2

For a further test, the system named is MRSA ATCC 33591. The format is cell-based, Staphylococcus aureus. The settings on record: ATCC 33591, 18 h.
Excerpt: as §1, §2

The subject of the next test is S. aureus c.i. The format is cell-based, Staphylococcus aureus. The settings on record: 18 h.
Excerpt: as §1, §2

The subject of another test is S. aureus ATCC 25923. The format is cell-based, Staphylococcus aureus. The conditions noted are these: ATCC 25923, 18 h.
Excerpt: as §1, §2

In test [2] the test system is Acinetobacter baumanii c.i. The format is cell-based, Acinetobacter baumannii. The settings on record: 18 h.
Excerpt: as §1, §2

Another test concerns P. aeruginosa c.i. The format is cell-based, Pseudomonas aeruginosa. The settings on record: 18 h.
Excerpt: as §1, §2

Test [3] has as its system human erythroleukemia K-562 cells. The format is cell-based. The settings on record: 24 h. On the procedure:
The standard MTT ((3-(4,5-Dimethylthiazol-2-yl)-2,5-diphenyltetrazolium bromide) test was used for the examination of the cytotoxic activity of AMPs towards human erithroleukemia cells K-562. The cells were purchased from Biolot (Saint Petersburg, Russia) and were grown in RPMI 1640 medium (Biolot, Saint Petersburg, Russia) supplemented with glutamine and 10% FCS. Before the experiment, the culturing medium was replaced with serum-free RPMI 1640. Serial dilutions of the peptides in RPMI were plated in sterile 96-well microplates, and the target cells were dispensed to the microplates (10^5 cells/well in RPMI 1640). The plates were incubated for 24 h at 37 °C under 5% CO2. Cell-free media and cells incubated without peptides served as controls. Four hours before the incubation ended, MTT in PBS (5 mg/mL) was added to each well. After the incubation was stopped by adding isopropanol/ 0.04 M HCl, the optical density was measured at 540 nm, subtracting the background absorbance at 690 nm. Toxicity was determined by nonlinear regression analysis of the corresponding dose–response curves using the Sigma Plot 11 program to calculate the IC50 values (the concentration of the test substance that reduced the OD540 capacity by 50%).

In test [4] the test system is Staphylococcus intermidius. The format is cell-based, Staphylococcus intermedius. The conditions noted are these: 18 h.
Excerpt: as §1, §2

Test [5] relates to Listeria monocytogenes EGD. In kind it is cell-based. The settings on record: 18 h.
Excerpt: as §1, §2

Test [6] deals with Pseudomonas aeruginosa ATCC 27853. The format is cell-based. The settings on record: ATCC 27853, 18 h.
Excerpt: as §1, §2

In test [7] the test system is Staphylococcus aureus 710A. The format is cell-based. The conditions noted are these: 18 h.
Excerpt: as §1, §2

The next test relates to Escherichia coli ML35p. In kind it is cell-based. The conditions noted are these: broth microdilution, 50% Mueller Hinton broth / 50% PBS, 18 h at 37 °C, median of 3–5 experiments in triplicates.
Excerpt: as §1, §2
(In general: In broth dilution the organism is exposed to a series of concentrations in liquid medium.)

In general, IC50 refers to the point on the concentration scale where inhibition reaches its midpoint. Regarding `CC(C)C[C@@H]1NC(=O)[C@H](C(C)C)NC(=O)[C@H](CCCNC(=N)N)NC(=O)[C@H](Cc2ccc(O)cc2)NC(=O)[C@H](CCCNC(=N)N)NC(=O)[C@H](CCCNC(=N)N)NC(=O)[C@@H](NC(=O)[C@@H](N)Cc2c[nH]c3ccccc23)CSSC[C@H](NC(=O)[C@@H](N)Cc2c[nH]c3ccccc23)C(=O)N[C@@H](CCCNC(=N)N)C(=O)N[C@@H](CCCNC(=N)N)C(=O)N[C@@H](Cc2ccc(O)cc2)C(=O)N[C@@H](CCCNC(=N)N)C(=O)N[C@@H](C(C)C)C(=O)N[C@@H](CC(C)C)C(=O)N[C@@H](C(C)C)C(=O)N[C@H](C(=O)N[C@@H](CN)C(N)=O)CCCNC(=O)[C@H](C(C)C)NC1=O` [ARs-C-B] (HELM PEPTIDE1{W.C.R.R.Y.R.V.L.V.[Orn].[NC[C@H](N[*:1])C(=O)[*:2]].[am]}|PEPTIDE2{W.C.R.R.Y.R.V.L.V}$PEPTIDE1,PEPTIDE2,2:R3-2:R3|PEPTIDE1,PEPTIDE2,10:R3-9:R2$$$V2.0; N-terminus assumed), the “G-MIC (geometric mean of all determined MICs)” value (“G-MIC” for short) in [1] was 4.4 µM. The “Minimal Inhibitory Concentrations (MIC)” value with E. coli M15 was 8 µM; in the test with E. coli ATCC 25922, 4 µM; with MRSA ATCC 33591, 8 µM; in the test on S. aureus c.i. it was 4 to 8 µM; in the test on S. aureus ATCC 25923, 4 µM; in [2], 8 to 16 µM. The “Minimal Inhibitory Concentrations (MIC)” value in the test with P. aeruginosa c.i. is 16 µM; in [4], 4 µM; in test [5], 2 µM; in test [6], 1 µM; in test [7], 4 µM; in the test on Escherichia coli ML35p, 1 to 2 µM. The molecule further gave an IC50 in test [3] of 39 µM.

`CC(C)C[C@@H]1NC(=O)[C@H](C(C)C)NC(=O)CNC(=O)[C@H](CCCNC(=N)N)NC(=O)[C@H](C(C)C)NC(=O)[C@H](CC(C)C)NC(=O)[C@H](C(C)C)NC(=O)[C@H](CCCNC(=N)N)NC(=O)[C@H](Cc2ccc(O)cc2)NC(=O)[C@H](CCCNC(=N)N)NC(=O)[C@H](CCCNC(=N)N)NC(=O)[C@@H](NC(=O)[C@@H](N)Cc2c[nH]c3ccccc23)CSSC[C@@H](C(=O)N[C@@H](Cc2c[nH]c3ccccc23)C(=O)O)NC(=O)[C@H](CCCNC(=N)N)NC(=O)[C@H](CCCNC(=N)N)NC(=O)[C@H](Cc2ccc(O)cc2)NC(=O)[C@H](CCCNC(=N)N)NC(=O)[C@H](C(C)C)NC1=O` [ARs-C] (HELM PEPTIDE1{W.C.R.R.Y.R.V.L.V.R.G.V.L.V.R.Y.R.R.C.W}$PEPTIDE1,PEPTIDE1,2:R3-19:R3$$$V2.0; N-terminus assumed): in test [1], the “G-MIC” value came to 3.2 µM. The “Minimal Inhibitory Concentrations (MIC)” value was 2 µM in the test with E. coli M15; 2 µM with E. coli ATCC 25922; 4 to 8 µM in the test with MRSA ATCC 33591; 16 µM in the test on S. aureus c.i.; 4 µM with S. aureus ATCC 25923; 2 µM in [2]. In addition, the “Minimal Inhibitory Concentrations (MIC)” value in the test on P. aeruginosa c.i. was 16 µM; in test [4] it was 8 µM; in [5], 1 µM; in test [6], 1 µM; in test [7], 2 to 4 µM; in the test on Escherichia coli ML35p it was 1 µM. The same molecule gave an IC50 in test [3] of 11.6 µM.

With `CC(C)[C@@H]1NC(=O)[C@H](CCCNC(=N)N)NC(=O)[C@H](C(C)C)NC(=O)[C@H](Cc2ccc(O)cc2)NC(=O)[C@H](C)NC(=O)[C@H](Cc2ccc(O)cc2)NC(=O)[C@H](C(C)C)NC(=O)[C@@H](NC(=O)[C@H](Cc2c[nH]c3ccccc23)NC(=O)[C@@H](N)CCCNC(=N)N)CSSC[C@H](NC(=O)[C@H](Cc2c[nH]c3ccccc23)NC(=O)[C@@H](N)CCCNC(=N)N)C(=O)N[C@@H](C(C)C)C(=O)N[C@@H](Cc2ccc(O)cc2)C(=O)N[C@@H](C)C(=O)N[C@@H](Cc2ccc(O)cc2)C(=O)N[C@@H](C(C)C)C(=O)N[C@@H](CCCNC(=N)N)C(=O)N[C@@H](C(C)C)C(=O)N[C@H](C(=O)N[C@@H](CN)C(N)=O)CCCNC1=O` [ARs-N-B] (HELM PEPTIDE1{R.W.C.V.Y.A.Y.V.R.V.[Orn].[NC[C@H](N[*:1])C(=O)[*:2]].[am]}|PEPTIDE2{R.W.C.V.Y.A.Y.V.R.V}$PEPTIDE1,PEPTIDE2,3:R3-3:R3|PEPTIDE1,PEPTIDE2,11:R3-10:R2$$$V2.0), the “G-MIC” value in test [1] amounted to 5.9 µM. Besides, the “Minimal Inhibitory Concentrations (MIC)” value in the test with E. coli M15 was 4 µM; in the test with E. coli ATCC 25922, 8 µM; in the test with MRSA ATCC 33591, 8 µM; in the test with S. aureus c.i., 8 µM; with S. aureus ATCC 25923 it was 8 µM; in test [2] it was 4 µM. In addition, the “Minimal Inhibitory Concentrations (MIC)” value in the test with P. aeruginosa c.i. was 16 µM; in test [4], 8 µM; in test [5], 2 to 4 µM; in [6], 2 µM; in [7] it was 8 µM; in the test on Escherichia coli ML35p, 4 µM. The molecule also gave an IC50 in test [3] of 35.1 µM.
